Data as given in patent US8778939B2, “Compounds” (Glaxo Group Limited, priority 2009, dated 2014).

Assays:
[1] = target: T1, 6His-Tev-LRRK2 (1326-2527) (Homo sapiens, UniProt Q5S007); assay: LRRK2 AlphaScreen desensitised protein substrate assay; assay type: biochemical
T1 construct: A LRRK2 cDNA encoding residues 1326-2527 was received from Dundee University; made in house; host or cells: Spodoptera frugiperda (Sf9) insect cells, baculovirus
T1 sequence (Q5S007 1326-2527): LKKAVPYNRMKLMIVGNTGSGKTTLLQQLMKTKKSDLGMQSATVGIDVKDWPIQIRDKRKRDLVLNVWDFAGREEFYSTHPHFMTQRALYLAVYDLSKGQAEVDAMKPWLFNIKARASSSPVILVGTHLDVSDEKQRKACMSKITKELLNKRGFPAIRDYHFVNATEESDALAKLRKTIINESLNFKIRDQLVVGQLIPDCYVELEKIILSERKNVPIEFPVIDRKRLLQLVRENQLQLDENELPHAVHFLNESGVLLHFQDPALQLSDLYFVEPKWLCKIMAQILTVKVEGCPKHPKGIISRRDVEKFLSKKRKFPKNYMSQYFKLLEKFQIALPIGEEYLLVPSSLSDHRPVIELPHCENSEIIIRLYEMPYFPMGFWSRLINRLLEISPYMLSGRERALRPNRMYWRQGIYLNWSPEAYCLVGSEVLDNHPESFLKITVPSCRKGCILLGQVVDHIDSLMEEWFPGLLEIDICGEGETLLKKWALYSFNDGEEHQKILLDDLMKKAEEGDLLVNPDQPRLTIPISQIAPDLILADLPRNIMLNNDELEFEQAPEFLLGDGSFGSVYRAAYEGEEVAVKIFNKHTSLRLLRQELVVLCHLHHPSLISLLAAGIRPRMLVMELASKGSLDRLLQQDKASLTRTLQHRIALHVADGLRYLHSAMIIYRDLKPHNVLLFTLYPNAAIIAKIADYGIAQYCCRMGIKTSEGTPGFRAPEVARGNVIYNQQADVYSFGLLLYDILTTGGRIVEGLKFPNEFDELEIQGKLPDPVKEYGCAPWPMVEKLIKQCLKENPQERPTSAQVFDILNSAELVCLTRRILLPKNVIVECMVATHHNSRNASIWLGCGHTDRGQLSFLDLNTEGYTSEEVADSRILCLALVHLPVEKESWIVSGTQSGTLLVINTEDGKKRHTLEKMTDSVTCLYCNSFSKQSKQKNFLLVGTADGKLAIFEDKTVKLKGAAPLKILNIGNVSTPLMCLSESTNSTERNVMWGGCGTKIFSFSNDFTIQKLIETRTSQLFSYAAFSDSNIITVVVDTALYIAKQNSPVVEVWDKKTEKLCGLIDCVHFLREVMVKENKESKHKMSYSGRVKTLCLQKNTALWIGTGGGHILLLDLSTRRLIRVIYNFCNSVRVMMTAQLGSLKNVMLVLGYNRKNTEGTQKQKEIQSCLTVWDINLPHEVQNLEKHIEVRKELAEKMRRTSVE
In short: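 Purified 6His-Tev-LRRK2 (1326-2527), 80 nM in enzyme solution, in pH 7.2 Hepes buffer with MgCl2 and DTT; compound 1:4 dilutions, top final 30 μM. ATP 2 mM in substrate solution, 20 min at room temperature. Phospho-ERM (Thr567/564/558) detected by AlphaScreen.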

[2] = target: T1, 6His-Tev-LRRK2 (1326-2527); assay: LRRK2 peptide substrate assay; assay type: biochemical; details: Biotin-LRRKtide peptide substrate, ATP at Km
In short: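 Recombinant 6His-Tev-LRRK2 (1326-2527), 80 nM in enzyme solution, in pH 7.2 Hepes/MgCl2 buffer with DTT; compounds in 1:4 serial dilution from 30 μM top final. Reaction 1-2 h at room temperature, stopped with EDTA; phospho-moesin (Thr558) antibody with Eu/APC TR-FRET detection after 2 h (ex 330, em 620/665 nm).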

[3] = excess of ATP present (2 mM ATP), read-out: pIC50 in the LRRK2 alphascreen desensitised protein substrate assay (converted)
[4] = mean pIC50, GST-PS-Moesin (400-577) substrate, 2 mM ATP (excess of ATP present), read-out: LRRK2 alphascreen desensitised protein substrate assay (pIC50) (converted)
[5] = read-out: pIC50 in the LRRK2 peptide substrate assay (converted)
[6] = mean pIC50, read-out: LRRK2 peptide substrate assay (pIC50) (converted)

| Structure (SMILES) | IC50 [1, 3] | IC50 [1, 4] | IC50 [2, 5] | IC50 [2, 6] |
| --- | --- | --- | --- | --- |
| O=C(Nc1cccnc1)c1cc(CN2CCOCC2)ccc1OCc1ccc(F)cc1 [Example 117, 2-{[(4-Fluorophenyl)methyl]oxy}-5-(4-morpholinylmethyl)-N-3-pyridinylbenzamide] | ≤ 20000 nM | 794 nM | ≤ 100 nM | 20 nM |
| COC(=O)NCc1ccc(OCc2ccc(F)cc2)c(C(=O)Nc2cccnc2)c1 [Example 118, Methyl ({4-{[(4-fluorophenyl)methyl]oxy}-3-[(3-pyridinylamino)carbonyl]phenyl}methyl)carbamate] | ≤ 20000 nM |  | ≤ 10 nM |  |
| O=C(Nc1ccnnc1)c1cc(CN2CCOCC2)ccc1OCc1ccc(F)cc1 [Example 119, 2-{[(4-Fluorophenyl)methyl]oxy}-5-(4-morpholinylmethyl)-N-4-pyridazinyl benzamide] | ≤ 20000 nM |  | ≤ 100 nM |  |
| Nc1cc(-c2ccc(OCc3ccccc3)c(C(=O)Nc3cccnc3)c2)ccn1 [Example 122, 5-(2-Amino-4-pyridinyl)-2-[(phenylmethyl)oxy]-N-3-pyridinylbenzamide] | ≤ 20000 nM |  | ≤ 100 nM |  |
| O=C(Nc1cccnc1F)c1cc(C(=O)N2CCOCC2)ccc1OCc1ccc(F)cc1 [Example 123, 2-{[(4-Fluorophenyl)methyl]oxy}-N-(2-fluoro-3-pyridinyl)-5-(4-morpholinylcarbonyl)benzamide] | ≤ 20000 nM | 2510 nM | ≤ 100 nM | 39.8 nM |
| O=C(Nc1cccnc1F)c1cc(C(=O)N2CCOCC2)ccc1OCc1ccc(F)cc1F [Example 125, 2-{[(2,4-Difluorophenyl)methyl]oxy)-N-(2-fluoro-3-pyridinyl)-5-(4-morpholinylcarbonyl)benzamide] | ≤ 20000 nM |  | ≤ 100 nM |  |
| O=C(Nc1cccnc1)c1cc(C(=O)N2CCOCC2)ccc1OCc1ccc(F)cc1 [Example 127, 2-{[(4-Fluorophenyl)methyl]oxy}-5-(4-morpholinylcarbonyl)-N-3-pyridinylbenzamide] | ≤ 20000 nM | 10000 nM | ≤ 100 nM | 63.1 nM |
| O=C(Nc1cccnc1)c1cc(-c2cnn(CCN3CCOCC3)c2)ccc1OCc1ccc(F)cc1 [Example 128, 2-{[(4-Fluorophenyl)methyl]oxy}-5-{1-[2-(4-morpholinyl)ethyl]-1H-pyrazol-4-yl}-N-3-pyridinylbenzamide] | ≤ 20000 nM | 126 nM | ≤ 10 nM | 7.94 nM |
| Cc1nocc1NC(=O)c1cc(-c2cnn(CCN3CCOCC3)c2)ccc1OCc1ccc(F)cc1 [Example 129, 2-([(4-Fluorophenyl)methyl]oxy)-N-(3-methyl-4-isoxazolyl)-5-{1-[2-(4-morpholinyl)ethyl]-1H-pyrazol-4-yl}benzamide] | > 25100 nM | > 25100 nM | ≤ 100 nM | 12.6 nM |
| COCCn1cc(-c2ccc(OCc3ccc(F)cc3)c(C(=O)Nc3cccnc3)c2)cn1 [Example 130, 2-{[(4-Fluorophenyl)methyl]oxy}-5-{1-[2-(methyloxy)ethyl]-1H-pyrazol-4-yl}-N-3-pyridinylbenzamide] | ≤ 20000 nM | 31.6 nM | ≤ 10 nM | 3.16 nM |
| Cn1cc(-c2ccc(OCc3ccc(F)cc3)c(C(=O)Nc3cnoc3)c2)cn1 [Example 134, 2-{[(4-Fluorophenyl)methyl]oxy}-N-4-isoxazolyl-5-(1-methyl-1H-pyrazol-4-yl)benzamide] | ≤ 20000 nM |  | ≤ 100 nM |  |
| O=C(Nc1cccnc1)c1cc(CCCN2CCOCC2)ccc1OCc1ccc(F)cc1 [Example 136, 2-{[(4-Fluorophenyl)methyl]oxy}-5-[3-(4-morpholinyl)propyl]-N-3-pyridinylbenzamide] | ≤ 20000 nM | 398 nM | ≤ 100 nM | 100 nM |
